Read-outs that look alike come from different tables or passages of the source.
Test system: G. stearothermophilus spores
Conditions: for Average Log Reduction: nominal 0.35 ppm H2O2, blades exposed serially; for Average Log Reduction / AVERAGE LOG REDUCTION: [H2O2] average, low; for AVERAGE LOG REDUCTION: nominal 0.6 ppm H2O2 vapor from urea complex, 6×10^4 spores per blade
Method: Stainless steel scalpel blades were inoculated with 10 μL of inoculum containing 6×10^4 spores. The inoculum was then dried on the blade surface. Nine inoculated blades where placed in a 1 ft^3 sealed chamber constructed of acrylic. In the chamber a urea complex was confined in a glass tube with a flow restriction that allowed the concentration of peroxide in the chamber to be controlled. Three identically-inoculated blades where placed inside a covered petrie dish and placed near the chamber to serve as controls. At three day intervals, three blades were retrieved from the chamber as well as one control. These blades were subjected to a standard recovery, plating and incubation procedure from which the viable spore count and log reduction could be determined.

OO [hydrogen peroxide]
Average Log Reduction (after 3 days exposure, high 0.35, 0.2, 0.5 ppm): 1.12 | Average Log Reduction (after 7 days exposure, high 0.30, 0.2, 0.5 ppm): 1.83 | Average Log Reduction (after 9 days exposure, high 0.39, 0.2, 0.6 ppm): ≧4.0 | AVERAGE LOG REDUCTION (after 3 days exposure, high 0.56, 0.40, 0.83 ppm): 1.5 | AVERAGE LOG REDUCTION (after 6 days exposure, high 0.66, 0.40, 0.83 ppm): 2.7 | AVERAGE LOG REDUCTION (after 9 days exposure, high 0.66, 0.40, 0.95 ppm): ≧4.8 | log reduction in G. stearothermophilus spores per day (nominal concentration of 0.6 ppm of hydrogen peroxide, from Table 1): ~0.5

Reference: patent US20090263499A1, “AREA DECON[…] LOW-LEVEL CONCENTRATION OF […]” (Ethicon, Inc., priority 2008, published 2009)
